This passage reports pest or weed control and mortality results from patent publication US12171229B2, “Heteroaryl-triazole and heteroaryl-tetrazole compounds as pesticides” (BAYER AKTIENGESELLSCHAFT, priority 2018, dated 2024).

What all share (type): in vivo
Assay [1] has as its system cattle ticks (Boophilus microplus) strane Parhurst, SP-resistant. Briefly: Boophilus microplus dip test. The settings on record: Rhipicephalus microplus, 168 h, engorged adult female cattle ticks, egg deposition after 7 days, read-out: efficacy (infertile eggs). The method, then: Boophilus microplus—Dip Test
Test animal: cattle ticks (Boophilus microplus) strane Parhurst, SP-resistant
Solvent: dimethyl sulfoxide
To produce a suitable preparation of active compound, 10 mg of active compound are dissolved in 0.5 ml solvent, and the concentrate is diluted with water to the desired concentration.
This compound solution is pipetted into tubes. 8-10 engorged, adult, female cattle ticks (Boophilus microplus) are placed in perforated tubes. These tubes are immersed in the aqueous compound solution until the ticks are completely moistened. After the liquid has drained off, the ticks are transferred to a filter paper in a plastic tray and stored in a climate chamber.
After 7 days egg deposition of fertile eggs is monitored. Eggs where fertility is not visible are stored in a climate chamber till hatching after about 42 days. An efficacy of 100% means all eggs are infertile; 0% means all eggs are fertile.

Another assay concerns Diabrotica balteata. Briefly: Diabrotica balteata spray test. The settings on record: Diabrotica balteata, in Triticum aestivum, 168 h, after 7 days, larvae on wheat seeds, read-out: efficacy (seedlings grown up). The gist of the method:
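Scoring at 7 days compares seedling growth with untreated, uninfested controls (100% = equal growth, 0% = none grown). Wheat seedlings germinated 1 day on agar, 5 per well, received a spray of test solution made in 1000 ppm emulsifier water. Each unit then received 10–20 beetle larvae.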

The test system of another assay is Phaedon cochleariae. Kind of assay: Phaedon cochleariae spray test. The conditions noted are these: foliar, 168 h, after 7 days, larvae on Chinese cabbage leaf disks. The method, then:
Phaedon Cochleariae—Spray Test
To produce a suitable preparation of active compound, 1 part by weight of active compound is mixed with the stated amount of solvents and is diluted with water, containing an emulsifier concentration of 1000 ppm, to the desired concentration. Further test concentrations are prepared by dilution with emulsifier containing water.
Chinese cabbage (Brassica pekinensis) leaf disks are sprayed with a preparation of the active ingredient of the desired concentration. Once dry, the leaf disks are infested with mustard beetle larvae (Phaedon cochleariae).
After 7 days mortality in % is determined. 100% means all beetle larvae have been killed and 0% means none of the beetle larvae have been killed.

The test system of the next assay is Spodoptera frugiperda. Briefly: Spodoptera frugiperda spray test. The settings on record: 168 h, after 7 days, larvae on maize leaf sections. The gist of the method: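 Seven-day percent mortality of larvae feeding on Zea mays leaf sections sprayed with test compound. Dilutions were made in water holding 1000 ppm emulsifier.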
Assay [2] concerns Blattella germanica strain PAULINIA
Briefly: whole plant or invertebrate. The conditions noted are these: read-out: efficacy (mortality). As for the experimental part:
Blattella Germanica Test (BLTTGE Surface Treatment & Contact Assay)
Solvent: Aceton+2000 ppm rapeseed oil methyl ester (RME)
In order to produce a sufficient, active ingredient containing solution it is necessary to solve the test compound in the solvent-mix (acetone at 2 mg/ml/RME 2000 ppm). This solution is pipetted onto a glazed tile and after evaporation of the acetone, adult animals of the species Blattella germanica strain PAULINIA are placed onto the dried surface. The exposure time is 30 minutes.
Mortality in percent (%) is determined 24 hours after contact of the insects to the treated surface. 100% mortality means that all tested insects are dead, whereas 0% means that no insect died.

For the compound `CC(c1ncnn1-c1ccc(C#N)cn1)N(CC1CC1)C(=O)c1cc(Cl)cc(C(F)(F)F)c1` (stereo not shown) [Example I-007], the pest or weed control at 100 ppm in assay [1] turned out to be 80%. Also, the pest or weed control at 80 µg/disc, 250 g/ha in the assay on Diabrotica balteata (80 μg/well (=250 g/ha)) came out at 100%. The pest or weed control at 160 µg/disc, 500 g/ha with Diabrotica balteata (160 μg/well (=500 g/ha)) came to 100%. The mortality at 500 g/ha with Phaedon cochleariae and in the assay with Spodoptera frugiperda (500 g/ha) was 100% each time. Further, the mortality at 100 g/ha in the assay on Spodoptera frugiperda (100 g/ha) stood at 100%. Besides, the mortality at 20 mg/m2 in assay [2] was 80 to 100%.
